Data as given in patent US20220185793A1, “COMPOUNDS FOR THE TREATMENT OF ONCOVIRUS INDUCED CANCER AND METHODS OF USE THEREOF” (Cellestia Biotech AG, priority 2019, published 2022).

Columns and labels:
[1] = test system: EBV positive human lymphoma HG-3 cells; assay: Alamar blue proliferation assay in HG-3 cells; type: cell-based; settings: 72 hours; for anti-proliferative effect on HG-3 cells (in words): Alamar blue, FIG. 1 and Table 1; for IC50: Homo sapiens, concentration range 0.01-10 μM, Alamar blue assay, read-out: Anti-proliferative IC50 values
Description: (§1) One million human EBV positive lymphoma cell lines HG3 and LCL070903 (Rosén et al., 2012) were cultured in RPMI1640 media supplemented with 10% FCS. […] Following treatment cells were harvested and washed with 1× PBS. Total RNA was extracted as described below.
(§2) Alamarblue® and PrestoBlue proliferation assays were performed to determine the growth kinetics of EBV inhibitor treated cells. Alamar blue® and PrestoBlue consists of a cell permeable substrate resazurin. In metabolically active and proliferating cells, resazurin is converted to resorufin due to an intrinsic reducing power of live cells and produces a red fluorescence. Therefore production of resorufin serves as an indicator of the viability of the cell population.
(§3) Proliferation assays were performed by seeding 5000 cells/well in a 96 well plate. […] Each concentration was tested in 4 replicates. To determine the growth kinetics, 10 μl of Alamar blue® or PrestoBlue (Invitrogen) was added to each well and incubated for 4 hours. Readout was taken using Tecan F500 (Tecan) multiplate reader or Varioskan LUX (ThermoFisher) multiplate reader.
In order to determine anti-cancer activity of compounds in oncoviral driven cells, an EBV infected human Chronic Lymphocytic Leukemia cell line HG-3 was used (Rosen et al., 2012). In brief, HG-3 cells were plated in a 96 well plate and treated with an increasing concentration of compounds.

LMP1 = assay: EBV target gene downregulation (qPCR) in HG-3 cells: LMP1; type: cell-based; settings: Homo sapiens, mRNA by qPCR, Table 2
Description: (§4) One million human EBV positive lymphoma cell lines HG3 and LCL070903 (Rosén et al., 2012) were cultured in RPMI1640 media supplemented with 10% FCS. For RNA expression analysis cells were treated with compounds at 10 μM concentration and for proliferation assay cells were treated at a concentration range of 0.01-100 μM. Following treatment cells were harvested and washed with 1× PBS. Total RNA was extracted as described below.
(§5) Total RNA was extracted from cells using TRIzol® extraction kit (Invitrogen). Briefly, 1×10^6 cells were washed with ice-cold 1× PBS and lysed in 1 ml of TRIzol® solution for 5 minutes at room temperature to dissociate nucleoprotein complexes. Lysed cells were then treated with 200 μl of chloroform and shaked vigorously for 15-30 seconds and incubated at room temperature for 2-3 minutes. The samples were centrifuged at 14000 rpm using Eppendorf table top centrifuge for 10 minutes at 4° C. Following centrifugation, upper aqueous phase was transferred to new eppendorf tubes. To precipitate total RNA 500 μl of […] was added to the separated aqueous phase and incubated at room temperature for 10 minutes. A RNA pellet was obtained by centrifuging the samples at 4° C. for 10 minutes. RNA pellet obtained was washed with 1 ml ice cold 75% ethanol and spun down at 14000 rpm at 4° C. RNA pellet was dried off of excess of ethanol and resuspended in 40 IA DPEC water.
(§6) Total RNA extracted from the cell was used to synthesize cDNA by reverse transcription reaction. Reverse transcription was performed according to one of the two following protocols.
(§7) In first protocol, SuperScript™ RT (Invitrogen) was used for reverse transcription reaction. RNA concentration was measured using NanoDrop®ND-1000 spectrophotometer (Witec AG) and 500 ng of total RNA was mixed with a 10 mM mix of dNTPs and 100 ng of random primers. The reaction mix was incubated at 65° C. for 5 minutes and quickly incubated on ice for 1 minute. Following incubation on ice, 5× first strand buffer and 0.1M DTT were added and mix was incubated for 2 minutes at 25° C. To start the reverse transcription reaction, 200U of SuperScrip™ II RT was added to the reaction mix and incubated at 42° C. for 50 minutes. The reaction was stopped by incubating the reaction mix at 75° C. for 15 minutes.
(§8) In second protocol, reverse transcription was performed using PrimeScript RT Master Mix (Takara). RNA concentration was measured using NanoDrop®ND-1000 spectrophotometer (Witec AG) and 1 μg of total RNA was mixed with 4 μL 5X PrimeScript RT Master Mix in a total reaction volume of 20 μL. […]
(§9) To determine the ability of compounds to downregulate EBV driven gene expression, HG-3 cells were treated with selected compounds and percentage inhibition of EBV target genes was determined by quantitative PCR. […]

RUNX3 = assay: EBV target gene downregulation (qPCR) in HG-3 cells: RUNX3; type: cell-based; settings: Homo sapiens, mRNA by qPCR, Table 2
Description: as §4, §5, §6, §7, §8, §9

NOTCH target gene HES1 = NOTCH target gene HES1 downregulation in RPMI 8402 cells; type: cell-based, human; parameters: Percentage inhibition of NOTCH target gene HES1: concentration or dose not given beside the values; settings: RPMI 8402 cells (NOTCH1 positive, EBV negative)
Description: as §5, §6
(§10) QRT-PCR was carried out using 7900 HT Fast Real-Time PCR system (Applied Biosystems) or QuantStudio 3 system (ThermoFisher). Briefly, 12.5 ng of template cDNA was used with a primer concentration of 0.5 μM each and lx SYBR Green dye in a final volume of 10 μL in a 96 well or 384 well plate format.
(§11) To determine the ability of compounds to downregulate EBV driven gene expression, HG-3 cells were treated with selected compounds and percentage inhibition of EBV target genes was determined by quantitative PCR. […] To further determine the anti-oncoviral specificity of compounds, these compounds were tested for their ability to downregulate a NOTCH target gene HES1 in a NOTCH1 positive (EBV negative) human leukemic cell line RPMI8402.

EBNA2 [2] = assay: EBV target gene downregulation (qPCR) in HG-3 cells: EBNA2; type: cell-based; settings: Homo sapiens, mRNA by qPCR
Description: as §4, §5, §6, §7
(§12) In second protocol, reverse transcription was performed using PrimeScript RT Master Mix (Takara). RNA concentration was measured using NanoDrop®ND-1000 spectrophotometer (Witec AG) and 1 μg of total RNA was mixed with 4 μL 5X PrimeScript RT Master Mix in a total reaction volume of 20 μL. The reaction mix was incubated at 37° C. for 15 minutes followed by heat inactivation at 85° C. for 5 seconds.
as §10, §11
(§13) Upon infection of human cells, EBV is known to induce cancerous transformation of cells via upregulation of host as well as viral genes (e.g LMP1, EBNA2, BATF1, BMI1 and CD21). To determine the ability of compounds to downregulate EBV driven gene expression, HG-3 and LCL070903 cells were treated with selected compounds and percentage inhibition of EBV target genes was determined by quantitative PCR. As shown in Table 5 and Table 6, compounds down regulate EBV target genes such as BMI1 in HG-3 and LCL070903 cells, respectively (FIGS. 3 and 4).

[3] = test system: EBV positive human B HG-3 cells; assay: PrestoBlue proliferation assay in HG-3 cells; type: cell-based; settings: 72 hours; for anti-proliferative effect on HG-3 cells (in words): PrestoBlue, FIG. 2 and Table 4; for IC50: Homo sapiens, concentration range 0.03-100 μM, PrestoBlue assay, read-out: Anti-proliferative IC50 values (μM) in HG-3 cells
Description: as §1, §2, §3
In brief, HG-3 cells were plated in a 96 well plate and treated with an increasing concentration of compounds.

BMI1 (EBV target gene) [4] = assay: EBV target gene downregulation (qPCR) in HG-3 cells: BMI1; type: cell-based, human; settings: 48 hours; for potency in downregulating EBV pathway (BMI1) compared with 6-(4-tert-butylphenoxy)pyridin-3-amine (in words): 10 μM, qRT-PCR, FIG. 4; for inhibition at 10 µM: Homo sapiens, mRNA by qPCR, Table 5
Description: EBV positive human B HG-3 cells were treated with 10 μM of the mentioned compounds for 48 hours. Following treatment, total RNA was extracted and mRNA expression analysed by qRT-PCR.
as §4, §5, §6, §7, §12, §10, §13

EBNA2 [5] = assay: EBV target gene downregulation (qPCR) in LCL070903 cells: EBNA2; type: cell-based; settings: Homo sapiens, mRNA by qPCR, Table 6
Description: as §4, §5, §6, §7, §12, §10, §13

BMI1 (EBV target gene) [6] = assay: EBV target gene downregulation (qPCR) in LCL070903 cells: BMI1; type: cell-based, human; settings: 48 hours; for potency in downregulating EBV pathway (BMI1) compared with 6-(4-tert-butylphenoxy)pyridin-3-amine (in words): 10 μM, qRT-PCR, FIG. 3; for inhibition at 10 µM: Homo sapiens, mRNA by qPCR, Table 6
Description: EBV positive human B LCL070903 cells were treated with 10 μM of the mentioned compounds for 48 hours. Following treatment, total RNA was extracted and mRNA expression analysed by qRT-PCR.
as §4, §5, §6, §7, §12, §10, §13

Compound	anti-proliferative effect on HG-3 cells (in words) [1]	IC50 [1] [µM]	inhibition at 10 µM (LMP1) [%]	inhibition at 10 µM (RUNX3) [%]	Percentage inhibition of NOTCH target gene HES1 (NOTCH target gene HES1) [%]	downregulation of NOTCH target gene HES1 (in words) (NOTCH target gene HES1)	inhibition at 10 µM (EBNA2 [2]; Table 2) [%]	anti-proliferative effect on HG-3 cells (in words) [3]	IC50 [3] [µM]	inhibition at 10 µM (EBNA2 [2]; Table 5) [%]	potency in downregulating EBV pathway (BMI1) compared with 6-(4-tert-butylphenoxy)pyridin-3-amine (in words) (BMI1 (EBV target gene) [4])	inhibition at 10 µM (BMI1 (EBV target gene) [4]) [%]	inhibition at 10 µM (EBNA2 [5]) [%]	potency in downregulating EBV pathway (BMI1) compared with 6-(4-tert-butylphenoxy)pyridin-3-amine (in words) (BMI1 (EBV target gene) [6])	inhibition at 10 µM (BMI1 (EBV target gene) [6]) [%]
CC(C)(C)c1ccc(Oc2ccc(NCc3ccncc3)cn2)cc1 [Example 1, 6-(4-(tert-Butyl)phenoxy)-N-(pyridin-4-ylmethyl)pyridin-3-amine]	demonstrate anti-proliferative effect	4	30	27	0	do not modulate expression of this gene									
CC(C)(C)c1ccc(Oc2ccc(NCc3ccccn3)cn2)cc1 [Example 3, 6-(4-(tert-Butyl)phenoxy)-N-(pyridin-2-ylmethyl)pyridin-3-amine]	demonstrate anti-proliferative effect	5.4	37	55	0	do not modulate expression of this gene	16								
CC(C)(C)c1ccc(Oc2ccc(NCc3cnc(N)nc3)cn2)cc1 [Example 5, 5-(((6-(4-(tert-Butyl)phenoxy)pyridin-3-yl)amino)methyl)pyrimidin-2-amine]	demonstrate anti-proliferative effect	4.8	22	57	0	do not modulate expression of this gene	46								
CC(C)(C)c1ccc(Oc2ccc(NCc3c[nH]cn3)cn2)cc1 [Example 10, N-((1H-Imidazol-4-yl)methyl)-6-(4-(tert-butyl)phenoxy)pyridin-3-amine]	demonstrate anti-proliferative effect	6.6	15	37	0	do not modulate expression of this gene									
Fc1cc(NCc2cccnc2)ccc1Oc1ccc(C2CCCCC2)cc1 [Example 19, 4-(4-Cyclohexylphenoxy)-3-fluoro-N-(pyridin-3-ylmethyl)aniline]								demonstrate anti-proliferative effect	3.5	36	enhanced potency	19	19	enhanced potency	56
Cc1nc(Oc2ccc(-c3ccccc3)cc2)ccc1NCc1cccnc1 [Example 23, 6-([1,1′-Biphenyl]-4-yloxy)-2-methyl-N-(pyridin-3-ylmethyl)pyridin-3-amine]								demonstrate anti-proliferative effect	1.9	1	enhanced potency	35	1	enhanced potency	39
Cc1ccccc1-c1ccc(Oc2ccc(NCc3cccnc3)cn2)cc1C [Example 29, 6-((2,2′-dimethyl-[1,1′-biphenyl]-4-yl)oxy)-N-(pyridin-3-ylmethyl)pyridin-3-amine]								demonstrate anti-proliferative effect	2	6	enhanced potency	28	30	enhanced potency	72
